According to US20230042936A1, “PYRIDO[2,3-d]PYRIMIDIN-7(8H)-ONES AS CDK INHIBITORS” (PROSENESTAR LLC, priority 2020, published 2023):
“Also recorded” adds a separate entry of the source.

Columns and labels:
CDC7/DBF4 = CDC7/DBF4 (Homo sapiens, UniProt O00311); assay: Kinase profiling; format: biochemical; conditions: 10 semi-logarithmic dilutions from 50 μM, singlicate; read-out: IC50 CDC7/DBF4
CDK1/CycB1 = CDK1/CycB1 (Homo sapiens, UniProt P06493); assay: Kinase profiling; format: biochemical; conditions: 10 semi-logarithmic dilutions from 50 μM, singlicate
CDK1/CycE1 = CDK1/CycE1 (Homo sapiens, UniProt P06493); assay: Kinase profiling; format: biochemical; conditions: 10 semi-logarithmic dilutions from 50 μM, singlicate
CDK6/CycD3 = CDK6/CycD3 (Homo sapiens, UniProt Q00534); assay: Kinase profiling; format: biochemical; conditions: 10 semi-logarithmic dilutions from 50 μM, singlicate
CDK9/CycK = CDK9/CycK (Homo sapiens, UniProt P50750); assay: Kinase profiling; format: biochemical; conditions: 10 semi-logarithmic dilutions from 50 μM, singlicate
CDK9/CycT1 = CDK9/CycT1 (Homo sapiens, UniProt P50750); assay: Kinase profiling; format: biochemical; conditions: 10 semi-logarithmic dilutions from 50 μM, singlicate
DYRK2 = biological target: T1, DYRK2 (Homo sapiens, UniProt Q92630); assay: Kinase profiling; format: biochemical; conditions: 10 semi-logarithmic dilutions from 50 μM, singlicate; read-out: IC50 DYRK2
T1 sequence (Q92630 1-601): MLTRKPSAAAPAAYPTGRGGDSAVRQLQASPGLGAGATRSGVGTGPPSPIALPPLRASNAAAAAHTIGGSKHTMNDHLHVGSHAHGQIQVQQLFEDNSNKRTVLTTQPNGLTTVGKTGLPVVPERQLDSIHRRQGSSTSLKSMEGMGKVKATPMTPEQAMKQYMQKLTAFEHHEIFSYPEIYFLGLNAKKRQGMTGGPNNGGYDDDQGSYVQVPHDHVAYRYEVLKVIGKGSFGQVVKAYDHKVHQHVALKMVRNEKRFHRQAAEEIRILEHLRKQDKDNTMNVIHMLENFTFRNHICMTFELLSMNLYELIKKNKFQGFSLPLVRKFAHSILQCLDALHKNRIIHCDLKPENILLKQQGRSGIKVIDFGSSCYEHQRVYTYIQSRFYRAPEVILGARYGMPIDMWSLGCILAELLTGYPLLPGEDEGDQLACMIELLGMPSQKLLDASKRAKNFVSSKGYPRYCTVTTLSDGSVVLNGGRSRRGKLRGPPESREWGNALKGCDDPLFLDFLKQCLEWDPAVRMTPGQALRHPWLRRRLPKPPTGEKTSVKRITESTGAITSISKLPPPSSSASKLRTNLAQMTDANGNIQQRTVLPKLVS

PIM1 = PIM1 (Homo sapiens, UniProt P11309); assay: Kinase profiling; format: biochemical; conditions: 10 semi-logarithmic dilutions from 50 μM, singlicate
[1] = Thermodynamic solubility (pH 7.4); format: physicochemical; conditions: pH 7.4, aqueous buffer, thermodynamic from solid
[2] = Metabolic stability in microsomes; format: in vitro ADME; conditions: mouse, 60-90 min test; for microsomal CLint: read-out: Metabolic stability, Mouse microsomes: Clearance; for half-life: read-out: Metabolic stability, Mouse microsomes: t1/2
[3] = Metabolic stability in hepatocytes; format: in vitro ADME; conditions: mouse, 60-90 min test; for hepatocyte CLint: read-out: Metabolic stability, Mouse heptocytes: Clearance; for half-life: read-out: Metabolic stability, Mouse heptocytes: t1/2
[4] = Permeability Caco-2 cells; format: in vitro ADME; conditions: human, Caco-2
Caco-2 cells = assay: Permeability Caco-2 cells; format: in vitro ADME
[5] = biological target: panel of 27 kinases (CDK family members); assay: Kinase profiling, results in words; format: biochemical; conditions: from Table 1
[6] = tested on: MDA-MB-231-derived xenografts; assay: Tumor xenografts; format: in vivo, Athymic nude mice; conditions: 100 mg/Kg intraperitoneally twice per week, two weeks; for phospho-RB levels in the xenografts: FIG. 9A; for tumor weight / tumor growth: vs DMSO; for tumor weight: FIG. 8A; for tumor growth: FIG. 8B
Procedure: For histological analysis, mice tissues and human xenografts were fixed in 10%-buffered formalin (Sigma) and embedded in paraffin wax. Sections of 3- or 5-μm thickness were stained with haematoxylin and eosin. Additional immunohistochemical examination was performed using a specific antibody against phospho-Rb (Ser807/811; Cell Signaling) or Ki67 (DAKO).
DMSO, PS004, PS006 and PS009 were diluted in sesame oil and administered intraperitoneally twice per week during two weeks at 100 mg/Kg. […] Tumor growth was monitored using caliper measurements and tumor size was estimated using the following formula: Tumor volume (mm^3)=d^2·D/2 where d and D, are the shortest and longest diameter in mm, respectively. After completing the treatment, mice were sacrificed and tumors were extracted, weighed, and fixed for histological analysis.
The therapeutic effect of the subject compounds was then tested by treating mice previously injected subcutaneously with MDA-MB-231 breast cancer cells. […] The dose amount of 100 mg/kg dosage in these cases was administered at a frequency of two injections per week for the total of two weeks of treatment.

[7] = tested on: human cancer cell lines (MDA-MB-231, U87-MG, H460) and MCF10; assay: Suppression of proliferation of human cancer cell lines, results in words; format: cell-based; conditions: summary of Table 3
Procedure: 48 h later cells were fixed with PFA 4% for 15 minutes, stained with 10 μg/ml Hoechst 33342 (Molecular Probes, Thermo Fisher) for 30 minutes and washed twice with PBS. Cells were imaged in a high content screening system (Opera Phoenix™, Perkin Elmer) using a 20× dry objective (30 fields/well). Cell counts were determined by the Opera software (Perkin Elmer) and data were further processed with SPSS software. GI50 was calculated by estimating the absolute IC50 using dose-response inhibition tool in Prism6 (Graphpad Software Inc.).
The cell growth inhibitions of the subject compounds were tested in multiple human cancer cell lines with wild-type Retinoblastoma protein: MDA-MB-231 (breast), U87-MG (glioblastoma), H460 (lung); and MCF10 (as an example of non-transformed human cells) and mutant cells.

[8] = Toxicologic evaluation in vivo; conditions: 50 or 100 mg/kg intraperitoneally twice a week for two weeks; for lung toxicity (hemorrhage in the lungs), mice affected: FIG. 11
MDA-MB-231 cells = assay: Senescence assay (β-Galactosidase staining); format: cell-based, human; conditions: at GI50; 3 days or 14 days exposure; FIGS. 2 and 3
Procedure: MDA-MB-231 cells were seeded in 6-well plates (65,000 cells/well) and treated with the selected compounds at their respective GI50. At 3, 7 and 14 days after treatment cells were stained with Senescence β-Galactosidase Staining Kit (Cell Signaling) at 37° C. overnight. Blue coloured senescent cells were counted with an optical microscope. Medium and compounds were refreshed every 3 days.
Cell cycle arrest can be irreversible in case of senescence induction.

Sequence of CDK9/CycT1 (P50750 whole entry): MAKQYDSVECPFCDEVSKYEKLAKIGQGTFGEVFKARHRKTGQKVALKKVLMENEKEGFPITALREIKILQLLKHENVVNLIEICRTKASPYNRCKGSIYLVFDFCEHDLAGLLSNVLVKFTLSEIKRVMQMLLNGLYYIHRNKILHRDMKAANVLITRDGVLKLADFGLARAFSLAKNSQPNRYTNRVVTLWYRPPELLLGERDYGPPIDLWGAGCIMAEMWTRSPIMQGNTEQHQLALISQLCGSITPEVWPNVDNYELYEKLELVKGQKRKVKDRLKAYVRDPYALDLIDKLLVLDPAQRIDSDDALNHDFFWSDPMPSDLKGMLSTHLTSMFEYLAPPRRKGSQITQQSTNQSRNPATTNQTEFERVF
Sequence of CDK9/CycT1 (O60563 whole entry partner): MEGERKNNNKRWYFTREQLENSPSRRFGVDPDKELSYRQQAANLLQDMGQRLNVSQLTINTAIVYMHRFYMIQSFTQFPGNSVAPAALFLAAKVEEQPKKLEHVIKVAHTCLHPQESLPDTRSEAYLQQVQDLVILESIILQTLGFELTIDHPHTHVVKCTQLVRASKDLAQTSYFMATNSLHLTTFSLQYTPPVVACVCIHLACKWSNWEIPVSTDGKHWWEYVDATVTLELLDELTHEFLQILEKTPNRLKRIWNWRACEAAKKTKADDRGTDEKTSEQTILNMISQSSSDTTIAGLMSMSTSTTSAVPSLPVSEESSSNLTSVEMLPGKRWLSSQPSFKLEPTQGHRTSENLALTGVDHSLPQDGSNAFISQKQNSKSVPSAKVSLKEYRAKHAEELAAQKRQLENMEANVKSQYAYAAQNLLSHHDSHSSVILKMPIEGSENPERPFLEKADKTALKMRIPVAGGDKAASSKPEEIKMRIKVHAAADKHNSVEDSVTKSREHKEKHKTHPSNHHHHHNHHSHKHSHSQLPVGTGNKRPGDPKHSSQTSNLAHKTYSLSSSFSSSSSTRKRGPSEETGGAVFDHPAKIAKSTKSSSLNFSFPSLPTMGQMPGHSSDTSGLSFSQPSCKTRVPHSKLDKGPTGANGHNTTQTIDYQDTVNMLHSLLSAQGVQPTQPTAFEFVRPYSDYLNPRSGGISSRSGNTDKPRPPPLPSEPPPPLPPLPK
Sequence of CDK9/CycK (P50750 whole entry): as the sequence (P50750 whole entry) above
Sequence of CDK9/CycK (O75909 whole entry partner): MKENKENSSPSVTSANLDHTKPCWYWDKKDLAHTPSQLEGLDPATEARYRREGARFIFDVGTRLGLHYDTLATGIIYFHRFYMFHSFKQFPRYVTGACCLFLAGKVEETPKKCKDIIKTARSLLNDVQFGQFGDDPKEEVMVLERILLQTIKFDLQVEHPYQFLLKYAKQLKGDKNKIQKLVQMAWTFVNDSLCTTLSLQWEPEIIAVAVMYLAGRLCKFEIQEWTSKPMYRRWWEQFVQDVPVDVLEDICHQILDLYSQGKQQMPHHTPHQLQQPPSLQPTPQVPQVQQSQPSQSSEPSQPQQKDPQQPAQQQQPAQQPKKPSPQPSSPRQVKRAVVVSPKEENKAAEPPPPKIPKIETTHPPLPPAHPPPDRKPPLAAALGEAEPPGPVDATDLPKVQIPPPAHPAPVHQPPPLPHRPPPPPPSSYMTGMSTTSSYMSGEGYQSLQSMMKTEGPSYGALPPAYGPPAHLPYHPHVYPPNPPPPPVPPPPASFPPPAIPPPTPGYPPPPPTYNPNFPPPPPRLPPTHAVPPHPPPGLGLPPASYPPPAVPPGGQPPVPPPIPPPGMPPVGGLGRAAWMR
Sequence of PIM1 (P11309 whole entry, species assumed): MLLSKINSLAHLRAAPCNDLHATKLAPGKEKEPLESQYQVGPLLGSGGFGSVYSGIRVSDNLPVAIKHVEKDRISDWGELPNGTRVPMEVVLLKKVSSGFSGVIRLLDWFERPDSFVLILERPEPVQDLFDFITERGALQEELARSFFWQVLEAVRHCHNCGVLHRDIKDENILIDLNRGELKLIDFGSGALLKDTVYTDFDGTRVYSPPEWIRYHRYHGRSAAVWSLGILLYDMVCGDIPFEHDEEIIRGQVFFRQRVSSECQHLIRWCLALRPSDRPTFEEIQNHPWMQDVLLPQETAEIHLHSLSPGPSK
Sequence of CDC7/DBF4 (O00311 whole entry): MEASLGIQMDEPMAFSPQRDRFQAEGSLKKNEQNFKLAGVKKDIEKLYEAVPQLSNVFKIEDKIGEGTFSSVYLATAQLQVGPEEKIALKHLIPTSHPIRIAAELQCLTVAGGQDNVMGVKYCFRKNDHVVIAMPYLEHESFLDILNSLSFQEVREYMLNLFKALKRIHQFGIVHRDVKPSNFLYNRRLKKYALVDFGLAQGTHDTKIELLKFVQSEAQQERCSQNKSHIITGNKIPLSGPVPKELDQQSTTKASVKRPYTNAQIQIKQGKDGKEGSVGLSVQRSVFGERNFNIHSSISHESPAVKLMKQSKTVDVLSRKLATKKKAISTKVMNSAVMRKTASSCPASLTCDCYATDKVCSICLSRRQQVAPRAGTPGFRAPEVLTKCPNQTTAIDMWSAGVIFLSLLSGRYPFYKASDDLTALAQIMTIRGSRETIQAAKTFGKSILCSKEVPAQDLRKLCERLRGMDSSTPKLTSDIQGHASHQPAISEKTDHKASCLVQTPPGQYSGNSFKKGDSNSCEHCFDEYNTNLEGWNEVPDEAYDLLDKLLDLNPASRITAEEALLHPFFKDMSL
Sequence of CDC7/DBF4 (Q9UBU7 whole entry partner): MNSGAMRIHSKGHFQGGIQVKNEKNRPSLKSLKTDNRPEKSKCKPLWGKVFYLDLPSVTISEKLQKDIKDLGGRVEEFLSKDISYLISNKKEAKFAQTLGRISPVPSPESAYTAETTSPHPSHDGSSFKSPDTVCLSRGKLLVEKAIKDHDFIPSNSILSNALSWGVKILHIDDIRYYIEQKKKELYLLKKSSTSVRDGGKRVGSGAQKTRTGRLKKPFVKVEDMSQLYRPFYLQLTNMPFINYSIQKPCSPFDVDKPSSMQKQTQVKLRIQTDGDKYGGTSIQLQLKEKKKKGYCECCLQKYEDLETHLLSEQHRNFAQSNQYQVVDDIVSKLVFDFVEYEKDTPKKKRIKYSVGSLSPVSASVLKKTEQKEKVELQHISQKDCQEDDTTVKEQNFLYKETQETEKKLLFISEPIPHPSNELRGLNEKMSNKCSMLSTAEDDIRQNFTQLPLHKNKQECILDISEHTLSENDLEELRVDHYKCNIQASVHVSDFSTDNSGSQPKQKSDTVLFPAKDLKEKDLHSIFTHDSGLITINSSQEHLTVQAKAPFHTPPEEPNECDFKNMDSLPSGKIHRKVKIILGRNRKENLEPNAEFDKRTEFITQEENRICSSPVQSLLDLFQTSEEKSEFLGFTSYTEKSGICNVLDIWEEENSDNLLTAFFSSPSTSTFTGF
Sequence of CDK1/CycE1 (P06493 whole entry): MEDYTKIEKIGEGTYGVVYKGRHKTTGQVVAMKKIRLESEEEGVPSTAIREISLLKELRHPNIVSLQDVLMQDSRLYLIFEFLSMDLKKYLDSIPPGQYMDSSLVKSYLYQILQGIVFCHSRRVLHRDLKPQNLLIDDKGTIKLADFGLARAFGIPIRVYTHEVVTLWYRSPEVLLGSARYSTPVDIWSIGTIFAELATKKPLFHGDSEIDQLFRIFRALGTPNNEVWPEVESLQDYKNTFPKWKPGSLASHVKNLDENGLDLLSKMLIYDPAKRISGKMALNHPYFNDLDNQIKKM
Sequence of CDK1/CycE1 (P24864 whole entry partner): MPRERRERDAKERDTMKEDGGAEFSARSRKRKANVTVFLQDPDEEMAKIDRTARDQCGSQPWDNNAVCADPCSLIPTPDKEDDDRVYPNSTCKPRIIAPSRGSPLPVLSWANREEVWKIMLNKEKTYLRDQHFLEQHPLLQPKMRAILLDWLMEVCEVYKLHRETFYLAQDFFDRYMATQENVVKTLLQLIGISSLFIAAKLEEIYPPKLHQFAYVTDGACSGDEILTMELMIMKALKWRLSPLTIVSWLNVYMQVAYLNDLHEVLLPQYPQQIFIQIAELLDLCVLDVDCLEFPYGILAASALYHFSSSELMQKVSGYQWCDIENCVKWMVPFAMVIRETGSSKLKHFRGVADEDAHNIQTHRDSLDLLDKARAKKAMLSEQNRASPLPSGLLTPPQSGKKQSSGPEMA
Sequence of CDK1/CycB1 (P06493 whole entry): as the sequence (P06493 whole entry) above
Sequence of CDK1/CycB1 (P14635 whole entry partner): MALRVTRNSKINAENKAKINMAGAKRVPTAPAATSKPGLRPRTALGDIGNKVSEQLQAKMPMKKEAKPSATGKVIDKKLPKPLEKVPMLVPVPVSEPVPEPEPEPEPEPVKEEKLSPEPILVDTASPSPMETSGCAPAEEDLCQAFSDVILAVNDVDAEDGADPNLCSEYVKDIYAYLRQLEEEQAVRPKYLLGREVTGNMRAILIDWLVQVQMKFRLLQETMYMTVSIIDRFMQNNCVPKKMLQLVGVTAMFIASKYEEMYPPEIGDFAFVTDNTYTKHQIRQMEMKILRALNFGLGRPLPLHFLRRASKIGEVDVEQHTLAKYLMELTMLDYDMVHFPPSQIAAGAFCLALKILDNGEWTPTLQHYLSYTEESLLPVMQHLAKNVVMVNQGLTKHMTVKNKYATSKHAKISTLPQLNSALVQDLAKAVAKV

## CC(O)CCC1CCN(c2ccc(Nc3ncc4ccc(=O)n([C@@H]5CC6CCC5C6)c4n3)cc2)CC1 (stereo partly drawn) [PS004, 8-((2R)-bicyclo[2.2.1]heptan-2-yl)-2-((4-(4-(3-hydroxybutyl)piperidin-1-yl)phenyl)amino)pyrido[2,3-d]pyrimidin-7(8H)-one]
CDC7/DBF4
  IC50: 9.9 µM
CDK1/CycB1
  IC50: 16.4 µM
CDK1/CycE1
  IC50: 3.32 µM
CDK6/CycD3
  IC50: 0.442 µM
CDK9/CycK
  IC50: 0.141 µM
CDK9/CycT1
  IC50: 0.264 µM
DYRK2
  IC50: 40.5 µM
PIM1
  IC50: > 50 µM
[1]
  solubility thermodynamic: < 2 µM
[2]
  microsomal CLint: 54.5 µL/min/mg
  half-life: 25.4 min
[3]
  hepatocyte CLint: 9.7 µL/min/1e6 cells
  half-life: 143 min
[4]
  Papp: < 0.44 ×10⁻⁶ cm/s
Caco-2 cells
  Permeability Caco-2 cells: Permeability, grade in words: (low)
[5]
  kinase affinity profile: affinity not only for CDK4/6 but also for CDK2/9
[6]
  phospho-RB levels in the xenografts: reduction of phospho-Rb phosphorylation which however did not reach statistical significance
  tumor weight: significantly reduced
  tumor growth: significantly reduced
[6]; FIG. 9B
  Ki67 levels in the xenografts: slightly diminished
[7]
  suppression of cell proliferation: inhibited cell growth with high potential
[8]
  histopathology of the bone marrow: hypoplasia/reactive bone marrow
  histopathology of the intestine: aberrant mitotic figures
  histopathology of the spleen: active extramedullar hematopoiesis
  lung toxicity (hemorrhage in the lungs), mice affected: 4 out of 6
[8]; FIG. 10
  blood counts (white blood cells, lymphocytes): reduced lymphocyte counts

## CC(O)COC1CCN(c2ccc(Nc3ncc4ccc(=O)n([C@@H]5CC6CCC5C6)c4n3)cc2)CC1 (stereo partly drawn) [PS006, 8-((2R)-bicyclo[2.2.1]heptan-2-yl)-2-((4-(4-(2-hydroxypropoxy)piperidin-1-yl)phenyl)amino)pyrido[2,3-d]pyrimidin-7(8H)-one]
CDC7/DBF4
  IC50: 5.57 µM
CDK1/CycB1
  IC50: 1.96 µM
CDK1/CycE1
  IC50: 1.21 µM
CDK6/CycD3
  IC50: 0.108 µM
CDK9/CycK
  IC50: 0.148 µM
CDK9/CycT1
  IC50: 0.264 µM
DYRK2
  IC50: > 50 µM
PIM1
  IC50: > 50 µM
[1]
  solubility thermodynamic: < 2 µM
[2]
  microsomal CLint: 185 µL/min/mg
  half-life: 7.5 min
[3]
  hepatocyte CLint: 75.7 µL/min/1e6 cells
  half-life: 18.3 min
[4]
  Papp: 4.62 ×10⁻⁶ cm/s
Caco-2 cells
  Permeability Caco-2 cells: Efflux, grade in words: (poor)
  Permeability Caco-2 cells: Permeability, grade in words: (high)
[5]
  affinity for CDK5: presented affinity
  kinase affinity profile: high affinity for CDK6/2/5/9
MDA-MB-231 cells
  SA-βGAL staining (senescence induction): induced high levels of SA-βGAL staining; also recorded: induced high senescence
[6]
  phospho-RB levels in the xenografts: significantly reduced
  tumor weight: did not exert any antitumoral effect
  tumor growth: did not exert any antitumoral effect
[7]
  suppression of cell proliferation: potent cell growth inhibition
[8]
  histopathology of the spleen: active extramedullar hematopoiesis
  lung toxicity (hemorrhage in the lungs), mice affected: 1 out of 6

## O=c1ccc2cnc(Nc3ccc(N4CCC(CCCO)CC4)cc3F)nc2n1[C@@H]1CC2CCC1C2 (stereo partly drawn) [PS002, 8-((2R)-bicyclo[2.2.1]heptan-2-yl)-2-((2-fluoro-4-(4-(3-hydroxypropyl)piperidin-1-yl)phenyl)amino)pyrido[2,3-d]pyrimidin-7(8H)-one]
CDC7/DBF4
  IC50: 14.6 µM
CDK1/CycB1
  IC50: 42.1 µM
CDK1/CycE1
  IC50: 14.6 µM
CDK6/CycD3
  IC50: 12.6 µM
CDK9/CycK
  IC50: 7.05 µM
CDK9/CycT1
  IC50: 8.07 µM
DYRK2
  IC50: > 50 µM
PIM1
  IC50: 27.9 µM
[7]
  suppression of cell proliferation: exception
